# Laboratory results as given in the SangsterLogP compilation.
# Assay: not given
row,Structure (SMILES),logP
1,CCCCCF,2.33
2,CCOC(=O)CC,1.21
3,CCCBr,2.1

# Assay: method code SF-AS, from DOI: 10.1021/jo01283a049
row,Structure (SMILES),logP
1,OCc1ccc2c(c1)OCO2,1.05
2,CNC(=S)Nc1ccccc1,0.85
3,CCSCC,1.95

# More lines, now with the values ahead:
row,logP,Structure (SMILES)
1,1.52,CC12CCC(C(=O)C1=O)C2(C)C (stereo not given)
2,0.85,CN(C(N)=S)c1ccccc1
3,2.08,c1ccc2cnccc2c1

# Assay: method code SF-CR, from DOI: 10.1021/jo01283a049
row,logP,Structure (SMILES)
1,-0.21,CCCC(N)=O
